# Assay: gradient 5% acetonitrile 3 min, to 50% in 2 min, to 85% in 15 min, held 3 min, 100 µL/min
# Conditions: column: Zorbax Extend-C18 2.1 x 50 mm; eluents: water / acetonitrile, 0.1% formic acid
# In short: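 Standards, all pure, were combined into mixtures of ~100 molecules and run at 100 μL/min on a Zorbax Extend-C18 column (2.1 × 50 mm, 1.8 μm) with water and acetonitrile, each containing 0.1% formic acid. A coupled quadrupole time-of-flight mass spectrometer operated in positive and negative ionization mode. Retention time values come from computationally picked adduct peaks, each inspected manually.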
row,Compound,RP-LC retention time [s]
1,O=C(Nc1ccc2c(c1)OCCO2)[C@@H]1COCC(=O)N1Cc1ccc(F)cc1,765
2,CCCn1cc(C(=O)NCc2cccs2)c2cccnc21,799
3,Cc1nn(-c2ccccc2)c(C)c1S(=O)(=O)N1CCC(C(=O)Nc2ccccc2F)CC1,950
4,Cc1nc(CNC(=O)[C@H]2CCCN2S(=O)(=O)c2cccc(C(F)(F)F)c2)cs1,787
5,Cc1ccc(CNC(=O)Nc2cccc(-c3ccc(N4CCC(C)CC4)nn3)c2)cc1,784
6,Cc1[nH]c(C)c(S(=O)(=O)N2CCC(C(=O)Nc3ccc(F)cc3F)CC2)c1C(=O)N1CCCC1,676
7,COc1cccc(CNC(=O)N2CCC(N3CCN(Cc4ccccc4)C(=O)C3=O)CC2)c1,698
8,O=[N+]([O-])c1cc(F)c2cccnc2c1O,773
9,Cc1ccccc1OCc1nc(-c2cccc(-c3ccnn3C)c2)no1,1130
10,CC1=NS(=O)(=O)N(Cc2ccccc2)C=C1C(=O)OCc1ccc(Cl)cc1,1160
11,COC(=O)c1ccc(CSc2nnc(NC(=O)c3snnc3C)s2)o1,743
12,O=C(CN1C(=O)C2CCCCN2c2ccc(C(=O)N3CCCC3)cc21)Nc1ccc2c(c1)OCO2 (stereo not given),794
13,CCc1ccc(S(=O)(=O)N2CC(F)(F)C[C@H]2c2nnc(C)o2)cc1,858
14,COC(=O)C1=CN(CC(=O)N2CCN(c3ccccc3)CC2)S(=O)(=O)N=C1C,871
15,CCc1cc(C(=O)NCc2ccc(C)cc2)nc2ccnn12,985
16,O=C([C@@H]1C[C@H](F)CN1C(=O)Nc1ccccc1Cl)N1CCCCC1,732
17,COc1ccccc1-c1nc(-c2ccc3ncn(C)c3c2)no1,674
18,Cn1c(=O)sc2cc(S(=O)(=O)N3CCC(C(=O)NCCCc4ccccc4)CC3)ccc21,867
19,O=C(NCc1ccc(F)cc1)[C@@H]1COCC(=O)N1Cc1ccc(F)cc1,791
20,Cn1cnc2c(C(=O)NCc3ccco3)nn(-c3ccc(Cl)cc3)c2c1=O,834
21,COc1ccc2c(c1)C1(CCN(C(=O)CCc3ccccc3)C1)C(=O)N2C (stereo not given),850
22,Cc1cccc(NC(=O)Cn2c(C)nc3c(sc4nc(-c5ccccc5)ccc43)c2=O)c1,880
23,Cc1ncoc1C(=O)NCC1Cn2cccc2C(=O)N1C (stereo not given),583

row,Compound,RP-LC retention time [s]
1,Cc1noc(-c2ccnc(-n3cnc(C(=O)NCCc4ccccc4)c3)c2)n1,823
2,CCc1ccccc1NC(=O)NCCNC(=O)c1ccc(NC(=O)C2CC2)cc1,657
3,COCCN1CCn2cc(S(=O)(=O)Nc3ccc(C)cc3F)cc2C1=O,740
4,O=C(NCCc1c[nH]c2ccc(Cl)cc12)c1cc2n(n1)CCCN(Cc1ccccc1)C2=O,904
5,Cc1nc(-c2csc(S(=O)(=O)N3CCCC(C(=O)N4CCc5ccccc5C4)C3)c2)no1 (stereo not given),977
6,COc1ccccc1NC(=O)C1CCN(C(=O)C2Sc3ccccc3NC2=O)CC1 (stereo not given),753
7,CC(CCNC(=O)CN1C(=O)C2CCCCN2c2ccc(C(=O)N3CCCC3)cc21)N1CCCC1 (stereo not given),614
8,O=C(Nc1nnc(C2CC(=O)N(c3ccc(F)cc3)C2)o1)c1cccc(Cl)c1 (stereo not given),750
9,COCCn1nc2n(c1=O)CCC1(CC2)CCN(C(=O)C2CCCCCC2)CC1,710
10,O=[N+]([O-])c1ccc(CSc2nc3ccccc3o2)cc1,1020
11,CCCCn1c(=O)c2ccccc2n(Cc2nc(-c3cccc(Br)c3)no2)c1=O,1280
12,Cc1ccc(-n2c(=O)c3sccc3n(Cc3nc(-c4ccc(Cl)c(F)c4)no3)c2=O)cc1,1150
13,O=C(NCc1ccsc1)C(=O)NCc1ccccc1Cl,842
14,COc1ccc(-c2nc3cnccn3c2Nc2ccc3c(c2)OCO3)cc1OC,672
15,O=C(NCc1csc(C2CCCN(C(=O)C3CC3)C2)n1)C1CCC1 (stereo not given),667
16,O=C(Cc1ccc(Cl)cc1)Nc1cnc(N2CCCC2)nc1,752
17,CCCn1nc(C)cc1CN(C)C(=O)Cn1nc2n(c1=O)CCC(N)CC2 (stereo not given),561
18,O=C(Nc1cccc(-c2nnc3n2CCCC3)c1)c1cc(C2CC2)[nH]n1,590
19,CCCn1cc(CCNS(=O)(=O)c2cccc(Cl)c2)c2cccnc21,804
20,Cc1ccc(NC(=O)C2CC(=O)N(c3ccc4oc(C)nc4c3)C2)c(C)c1 (stereo not given),741
21,CCCn1cc(C(=O)NCCCOCC)c(S(=O)(=O)N2CCN(c3ccccc3Cl)CC2)n1,1090
22,Cc1cc(N2CCC(NC(=O)Nc3cccc(F)c3)C2=O)ccc1F (stereo not given),882
23,Cc1sc(NC(=O)C2CCCCC2)nc1-c1ccc2c(c1)NC(=O)CO2,921

row,Compound,RP-LC retention time [s]
1,Cc1ccnc(NC(=O)C2CCCN(c3cc(=O)n(C)c(=O)n3C)C2)c1 (stereo not given),570
2,O=C(NC1CCN(c2cc(-c3ccc(F)cc3)[nH]n2)CC1)C1COc2ccccc2O1 (stereo not given),824
3,CCc1cc(N2CCN(C(=O)c3ccc4c(c3)OCO4)CC2)nc2nncn12,575
4,Cc1ccc(NC(=O)C2CCN(S(=O)(=O)c3cn(C(C)C)cn3)CC2)cc1F,823
5,Cc1ccccc1S(=O)(=O)N(C)CC1CCOCC1,837
6,COc1ccc(OC)c(-c2nc(Nc3ccc(C)c(Cl)c3)sc2CC(=O)O)c1,972
7,COc1ccc(C(C)NC(=O)Cc2cn(C)c3ncccc23)cc1 (stereo not given),678
8,O=C([C@@H]1C[C@H](F)CN1C(=O)C1(c2ccccc2)CC1)N1CCOCC1,639
9,CCn1cc(-c2nc(C)c(C(=O)Nc3cccc(OC)c3)s2)c2cccnc21,983
10,O=C(NCc1ccc(Cl)cc1)C1CCN(S(=O)(=O)c2cc(C(=O)N3CCCC3)cs2)CC1,916
11,Cc1ccc(CNC(=O)C2Cn3cccc3C(=O)N2CC(C)C)o1 (stereo not given),746
12,O=C(NCC1CCOCC1)c1ccc2[nH]ccc2c1,742
13,O=C(NCCc1ccc(N2CCCC2)cc1)c1ccccc1,704
14,Cc1cn(C)c(CC(=O)NCc2ccco2)c1C(=O)O,671
15,CCOC(=O)c1c(N)n(CCCOC)c2nc3ccccc3nc12,645
16,CN(C)C(=O)c1n[nH]c2c1CN(S(=O)(=O)c1ccccc1)CC2,660
17,Cc1ccc(Cl)cc1N1CCN(c2ncc(S(=O)(=O)c3ccccc3)c(N)n2)CC1,1250
18,CC(C)Oc1ccc(CNS(=O)(=O)c2cc(-c3nc(C(C)(C)C)cs3)cs2)cc1,1320
19,COc1cc(NC(=O)CN2C(=O)C(O)(c3ccccc3)c3ccccc32)cc(OC)c1 (stereo not given),872
20,COc1ccc(CCc2nc3nccc(-c4ccc(OC)cc4)n3n2)cc1,943
21,Cc1cc(C)cc(S(=O)(=O)Nc2ccc3nc(N4CCN(CCC#N)CC4)cc(C(=O)O)c3c2)c1,658
22,CCNC(=O)c1cc(N2CCCC2)nc2ccc(F)cc12,580
23,Cc1ccc(-n2nc(N3CCCC(C(=O)NC(C)CCc4ccccc4)C3)ccc2=O)cc1Cl (stereo not given),1060

row,Compound,RP-LC retention time [s]
1,Clc1ccc(Cl)c(-c2ccc(CNCc3ccncc3)o2)c1,664
2,O=C(c1ccsc1)N1CCN(c2nnc3ccc(Cl)cn23)CC1,615
3,COc1cccc(-c2c(C(=O)O)nnn2-c2ccc3c(c2)OCCO3)c1,744
4,CCn1ccc2c(cc(C(=O)Nc3cc(Cl)c(OC)cc3OC)n2C)c1=O,810
5,O=C(c1ccc2c(c1)CCCC2)N1CCN(c2ccccc2)CC1,1050
6,Clc1ccc(-c2nc(-c3cccc(-c4ccn[nH]4)c3)no2)cc1,1090
7,CCn1ncc(C(=O)N2CCCn3ccnc3C2C(C)C)c1C (stereo not given),567
8,CCN(CC)C(=O)CSc1nnc(-c2ccc3c(c2)OCCCO3)n1C,691
9,CCCC(NC(=O)c1ccc(Cl)cc1)C(=O)Nc1nc2ccccc2[nH]1 (stereo not given),742
10,COc1cccc(CNC(=O)C2CCCN(c3ncnc4c3nc3n4CCCCC3)C2)c1 (stereo not given),736
11,Cc1cccc(S(=O)(=O)N2CCCC(OCc3nc(C)no3)C2)c1 (stereo not given),877
12,COc1ccc(C2(C(=O)Nc3cc(-c4ccsc4)no3)CC2)cc1,1030
13,O=C(Nc1ccc(C(F)(F)F)cc1)N1CCCC(Cn2c(C3CC3)nc3cccnc32)C1 (stereo not given),798
14,Cc1nc([C@@H]2CN(C(=O)c3cc(C4CC4)[nH]n3)C[C@H]2C(N)=O)n[nH]1,540
15,O=C(Cn1nc2c(cc1=O)CCCC2)NCCc1nc(-c2ccccc2)cs1,784
16,CCCNC(=O)C1CCCN(c2nc3ccsc3c(=O)n2-c2ccc(C)cc2)C1 (stereo not given),1250
17,CCn1c(C(=O)NCCCN2CCCC(C)C2)c(N2CCCC2=O)c2cc(OC)ccc21 (stereo not given),666
18,O=C(NCc1cccc(F)c1)C1CCN(c2cncnc2N2CCOCC2)CC1,614
19,O=C(C1CCCO1)N1CCC(CCOc2ccccc2)CC1 (stereo not given),844
20,CC(=O)N1c2ccc(S(=O)(=O)N3CCCC3)cc2CC1C(=O)NCCC(C)C (stereo not given),806
21,Cc1nn(-c2ccc(C(=O)NCc3cc(F)cc(F)c3)cn2)c(C)c1C,918
